Values after ≈ are worked out from the molar mass of the structure shown.

For one molecule, dose excreted and MIC results are on record in US4649136A, “Cephem compounds” (Fujisawa Pharmaceutical Co., Ltd., priority 1981, dated 1987).

Data set [1] in a line: Urinary excretion. The data set is classed as in vivo. To be noted: rat; rats; oral administration of 100 mg/kg; urine 0 to 6 and 6 to 24 hours; bioassay; read-out: Urinary recovery in 24 hours (%).
Procedure: Urine of rats was collected with a urine collector at 0 to 6, and 6 to 24 hours after oral administration of 100 mg/kg of the test antibiotic. The antibiotic levels in the urine samples were bioassayed with the standard solution prepared with M/15 phosphate buffer (pH 7.0) and the urinary recovery in 24 hours was calculated.
The subject of data set [2] is Proteus mirabilis 18. Briefly: In vitro antibacterial activity, two-fold agar-plate dilution method (MIC). Type of data set: cell-based. To be noted: HI-agar, 10^8 viable cells per ml, 37° C., 20 hours. The protocol: (§1) In vitro antibacterial activity was determined by the two-fold agar-plate dilution method as described below. One loopful of an overnight culture of each test strain in Trypticase-soy broth (10^8 viable cells per ml) was streaked on heart infusion agar (HI-agar) containing graded concentrations of representative test compound, and the minimal inhibitory concentration (MIC) was expressed in terms of μg/ml after incubation at 37° C. for 20 hours.

Data set [3] has as its system Klebsiella pneumoniae 7. The description is as above. The data set is classed as cell-based. To be noted: HI-agar, 10^8 viable cells per ml, 37° C., 20 hours. As for the experimental part: as §1
Data set [4] can be described thus: in vivo. The following applies: rat, po, 100 mg/kg.
Procedure: Rats anesthetized with pentobarbital were fixed in supine position, and a polyethylene cannula was inserted into the bile duct. Bile samples were collected at 0 to 3, 3 to 6, and 6 to 24 hours after oral administration of 100 mg/kg of the test antibiotic. The antibiotic levels in the bile samples were bioassayed with the standard solution prepared with M/15 phosphate buffer (pH 7.0) and the biliary recovery in 24 hours were calculated.

Regarding `O=C(O)CO/N=C(\C(=O)NC1C(=O)N2C(C(=O)O)=CCSC12)c1cscn1` (stereo not drawn) [Compound .circle.A, 7-[2-Carboxymethoxyimino-2-(4-thiazolyl)acetamido]-3-cephem-4-carboxylic acid (syn isomer)], the dose excreted at 24 h in data set [1] came to 43.5%; in data set [4] it was 7.9%. Besides, the MIC in data set [2] and in data set [3] was 0.05 µg/mL (≈ 0.121 µM) in each case.
